What was measured:
Assay type in all cases: cell-based, human
[1] = test system: p70S6K, 4E-BP-1 and BAD phosphorylation in Raji cells; test: Phosphorylation of mTOR downstream targets and BAD, western blot
Procedure: The phosphorylation of p70S6K and 4E-BP1, two target molecules of mTOR, was examined as indications of mTOR inhibition.
The effect of rapamycin on BAD phosphorylation in 3-BrOP-treated cells was examined.
Protein lysates were prepared from the control and drug-treated cells, and separated by electrophoresis on 10% SDS-PAGE. […] The antibodies were dilute at 1:1,000 unless indicated otherwise. The bound primary antibodies were detected using appropriate horseradish peroxidase-conjugated secondary antibodies, followed by detection with a SuperSignal enhanced chemiluminescence kit (Pierce, Rockford, Ill.). For sequential blotting, the membranes were stripped with a stripping buffer (Pierce, Rockford, Ill.) followed by re-blotting with proper antibodies.

HL-60 cells = test: MTT assay, in vitro cytotoxic activity before and after storage of drug solutions; conditions: pH 7.0, 72 h drug incubation
Raji cells = test: Cell growth by direct cell counting (Coulter Z2)
Procedure: A different assay was then used to further confirm the synergy between rapamycin and 3-BrOP. Raji cells were treated with 30 μM 3-BrOP, 100 ng/ml rapamycin, or their combination, and the numbers of cells were directly counted for consecutive 3 days, using a Coulter Z2 Particle Count & Size Analyzer.
Cell growth inhibition was determined by direct counting of the cells after they were treated with rapamycin, 3-BrOP, or their combination. A Coulter Z2 Particle Count & Size Analyzer was used to determine cell counts at 24 h, 48 h, and 72 h after drug incubation. Apoptosis was measured by flow cytometric analysis of cells stained with annexin V-FITC and propidium iodide (PI). Cells were treated with the indicated compounds under various incubation conditions as described in the figure legends. The samples were collected, washed with cold PBS, and then suspended in annexin-V binding buffer. The cells were stained with annexin V-FITC for 15 min at room temperature, washed, and then stained with PI. The samples were analyzed using a FACSCalibur flow cytometer equipped with CELLQuestPro software (Becton-Dickinson, San Jose, Calif.).

SMILES: CCCOC(=O)C(=O)CBr [Glycolycin, propyl 3-bromo-2-oxopropionate]
- BAD phosphorylation at Ser112 ([1]; 20 μM, 6 hours): did not reduce
- BAD phosphorylation at Ser112 ([1]; 40 μM in the presence of rapamycin (100 ng/ml)): complete abolished
- BAD phosphorylation at Ser112 ([1]; 40 μM, 6 hours): substantial decrease
- phosphorylation of P70 S6K at Thr389 and 4E-BP-1 at Ser65 ([1]; 40 μM, 6 hours): some inhibition
- % Cell Survival (HL-60 cells; 5 μM, fresh drug solution): 19.3 ± 5.7%
- % Cell Survival (HL-60 cells; 10 μM, drug stored for 3 weeks at 4° C.): 3.0 ± 1.3%
- % Cell Survival (HL-60 cells; 10 μM, fresh drug solution): 2.5 ± 0.8%
- % Cell Survival (HL-60 cells; 30 μM, drug stored for 3 weeks at 4° C.): 2.9 ± 1.2%
- % Cell Survival (HL-60 cells; 30 μM, fresh drug solution): 3.7 ± 0.6%
- % Cell Survival (HL-60 cells; 100 μM, drug stored for 3 weeks at 4° C.): 2.5 ± 0.9%
- % Cell Survival (HL-60 cells; 100 μM, fresh drug solution): 3.5 ± 1.7%
- decrease in cell numbers (Raji cells; 30 μM alone, up to 72 h): ~35%
- cell growth (Raji cells; 30 μM in combination with 100 ng/ml rapamycin): almost complete inhibition of cell growth

Reference: patent US20060058383A1 (priority 2004, published 2006)
